Experiments:
[1] = system: PBMC; assay: cells; conditions: Homo sapiens
[2] = in vivo; conditions: dog, iv, 5 mg/kg
[3] = in vivo; conditions: mouse, po, 1 mg/kg
[4] = in vivo; conditions: mouse, iv, 1 mg/kg
[5] = in vivo; conditions: dog, po, 10 mg/kg
[6] = in vivo; conditions: mouse, po, 1 mg/kg; remark: listed apart in the source
[7] = molecular target: hERG (KCNH2) (Homo sapiens, UniProt Q12809); assay: in vitro
[8] = in vivo; conditions: mouse, po, 1 mg/kg; remark: listed apart in the source
[9] = in vivo; conditions: dog, iv, 5 mg/kg; remark: listed apart in the source
[10] = in vivo; conditions: mouse, iv, 1 mg/kg; remark: listed apart in the source
[11] = in vivo; conditions: mouse, iv, 1 mg/kg; remark: listed apart in the source
[12] = in vivo; conditions: mouse, plasma, po, 1 mg/kg
[13] = in vivo; conditions: dog, po, 10 mg/kg; remark: listed apart in the source
[14] = in vivo; conditions: dog, plasma, po, 10 mg/kg
[15] = in vivo; conditions: dog, iv, 5 mg/kg; remark: listed apart in the source
[16] = in vivo; conditions: dog, po, 10 mg/kg; remark: listed apart in the source
[17] = in vivo; conditions: dog, iv, 5 mg/kg; remark: listed apart in the source
[18] = in vivo; conditions: mouse, iv, 1 mg/kg; remark: listed apart in the source

hERG (KCNH2), sequence (Q12809 whole entry): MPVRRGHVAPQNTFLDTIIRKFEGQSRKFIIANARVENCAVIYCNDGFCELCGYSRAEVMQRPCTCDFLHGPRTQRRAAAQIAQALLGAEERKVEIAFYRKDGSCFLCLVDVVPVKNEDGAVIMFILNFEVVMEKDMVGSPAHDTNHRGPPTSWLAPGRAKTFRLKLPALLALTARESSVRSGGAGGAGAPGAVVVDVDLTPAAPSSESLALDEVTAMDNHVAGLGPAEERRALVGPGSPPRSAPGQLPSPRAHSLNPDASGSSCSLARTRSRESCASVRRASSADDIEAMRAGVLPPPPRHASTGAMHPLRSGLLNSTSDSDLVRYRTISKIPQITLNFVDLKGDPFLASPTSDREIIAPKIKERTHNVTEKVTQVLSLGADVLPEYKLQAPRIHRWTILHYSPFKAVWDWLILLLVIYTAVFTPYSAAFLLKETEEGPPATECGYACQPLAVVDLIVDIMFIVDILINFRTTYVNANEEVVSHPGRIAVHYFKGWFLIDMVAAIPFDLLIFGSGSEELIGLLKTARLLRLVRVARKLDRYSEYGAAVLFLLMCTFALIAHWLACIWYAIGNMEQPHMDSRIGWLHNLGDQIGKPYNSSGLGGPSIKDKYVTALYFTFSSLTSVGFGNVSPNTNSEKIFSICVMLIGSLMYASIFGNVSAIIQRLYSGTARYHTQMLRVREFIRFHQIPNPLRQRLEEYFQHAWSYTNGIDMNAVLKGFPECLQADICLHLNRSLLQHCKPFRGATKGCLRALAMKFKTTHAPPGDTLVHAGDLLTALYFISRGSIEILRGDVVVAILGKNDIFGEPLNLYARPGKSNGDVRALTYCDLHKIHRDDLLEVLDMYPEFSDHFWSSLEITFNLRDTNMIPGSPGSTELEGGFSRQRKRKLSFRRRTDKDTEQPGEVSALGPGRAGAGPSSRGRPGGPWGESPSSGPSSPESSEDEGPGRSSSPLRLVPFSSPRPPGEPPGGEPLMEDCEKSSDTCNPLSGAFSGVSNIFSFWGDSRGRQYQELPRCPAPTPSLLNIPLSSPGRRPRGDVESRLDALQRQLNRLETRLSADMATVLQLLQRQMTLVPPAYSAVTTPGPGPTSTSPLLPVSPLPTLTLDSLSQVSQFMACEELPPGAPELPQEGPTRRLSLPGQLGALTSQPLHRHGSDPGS

Molecule CN1C(=O)N(c2cc(Cl)cc(Cl)c2)C(=O)[C@]12CN(Cc1cc(C(=O)O)cs1)C[C@H]2c1ccc(C#N)cc1 has an IC50 [1] of 280 nM, a half-life [2] of 3.5 h and a Cmax [3] of 0.083 µM. It also gave an MRT [4] of 4.4 h, a Tmax [5] of 2 h and a Tmax [6] of 0.25 h. The inhibition at 30 µM [7] was 24%, the bioavailability [8] was 41% and the Vd [9] was 0.7 L/kg. It also gave a Vd [10] of 8.5 L/kg, a clearance [11] of 32 mL/min/kg and an AUC [12] of 0.306 µM·h. It also gave a Cmax [13] of 18.9 µM, an AUC [14] of 115 µM·h and an MRT [15] of 3.3 h. It also gave a bioavailability [16] of 100%, a clearance [17] of 3.6 mL/min/kg and a half-life [18] of 5.4 h.
